In patent publication US20080026996A1, “Selective Vpac2 Receptor Reptide Agonists” (ELI LILLY AND COMPANY, priority 2004, published 2008):
Where a SMILES comes first, the peptide text is derived from it. Where no end group is shown, it is not given here. [ ]: non-standard residue; d: D form. The star is where a group is joined. Cit = NC(=O)NCCC[C@H](N)C(=O)O; Hexanoyl = CCCCCC(=O)*; Aib = CC(C)(N)C(=O)O

Legend:
human VPAC2 [1] = molecular target: T1, human VPAC2 (Homo sapiens, UniProt P41587); test: Filter binding assay, membranes of stable VPAC2 cell line, 125I-labeled VIP tracer (Table 2); settings: read-out: Human VPAC2 Receptor Binding
T1 construct: expressed in transfected cells
T1 sequence (P41587 24-438): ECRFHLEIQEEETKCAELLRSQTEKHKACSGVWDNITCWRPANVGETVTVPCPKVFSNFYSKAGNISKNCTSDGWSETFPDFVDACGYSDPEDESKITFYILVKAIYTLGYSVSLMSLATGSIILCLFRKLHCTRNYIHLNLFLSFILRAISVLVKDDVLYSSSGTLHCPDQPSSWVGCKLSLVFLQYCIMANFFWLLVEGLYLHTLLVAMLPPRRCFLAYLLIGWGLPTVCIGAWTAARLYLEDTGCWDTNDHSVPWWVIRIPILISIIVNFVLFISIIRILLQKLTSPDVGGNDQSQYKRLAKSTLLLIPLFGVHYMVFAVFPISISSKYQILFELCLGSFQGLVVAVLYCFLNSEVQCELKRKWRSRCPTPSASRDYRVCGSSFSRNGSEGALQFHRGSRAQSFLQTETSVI
Procedure, shortened: (§1)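 Membranes 2.5 μg/well; tracer ~40000 cpm; buffer 25 mM HEPES pH 7.4, 0.5% protease-free BSA; 1 h incubation, shaking. Glass-fibre filtration (0.5% polyethyleneamine presoak, 0.2% BSA block), 3× HEPES wash, dry 1 h at 60° C, scintillation count.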

[2] = Rat serum stability studies (remaining active peptide by DiscoveRx cAMP on CHO-VPAC2 cells); format: in vitro ADME
Procedure, shortened: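 EC50 from a DiscoveRx cAMP read-out on CHO-VPAC2 cells indexes how much peptide stays active after 18 h in rat serum at 37° C without aprotinin, against an aprotinin-protected 4° C aliquot.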

human VPAC1 = molecular target: T2, human VPAC1 (Homo sapiens, UniProt P32241); test: Filter binding assay, membranes of cells transiently transfected with human VPAC1, 125I-labeled VIP tracer (Table 2); set-up: expressed in transfected cells; settings: read-out: Human VPAC1 Receptor Binding
T2 sequence (P32241 31-457): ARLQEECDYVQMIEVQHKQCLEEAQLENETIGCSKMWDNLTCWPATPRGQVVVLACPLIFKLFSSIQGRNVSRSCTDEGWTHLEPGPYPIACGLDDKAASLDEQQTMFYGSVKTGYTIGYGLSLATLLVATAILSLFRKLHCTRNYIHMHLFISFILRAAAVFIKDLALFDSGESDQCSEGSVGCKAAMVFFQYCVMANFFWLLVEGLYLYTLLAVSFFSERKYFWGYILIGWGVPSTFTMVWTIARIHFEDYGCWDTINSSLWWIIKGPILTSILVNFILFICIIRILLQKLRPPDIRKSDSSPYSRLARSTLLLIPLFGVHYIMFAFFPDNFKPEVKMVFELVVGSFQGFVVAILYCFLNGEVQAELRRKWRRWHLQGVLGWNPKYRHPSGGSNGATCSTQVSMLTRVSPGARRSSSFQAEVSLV
Procedure, shortened: as §1

human PAC1 = molecular target: T3, human PAC1 (Homo sapiens, UniProt P41586); test: Filter binding assay, membranes of cells transiently transfected with human PAC1, 125I-labeled PACAP-27 tracer (Table 2); set-up: expressed in transfected cells; settings: read-out: Human PAC1 Receptor Binding
T3 sequence (P41586 21-468): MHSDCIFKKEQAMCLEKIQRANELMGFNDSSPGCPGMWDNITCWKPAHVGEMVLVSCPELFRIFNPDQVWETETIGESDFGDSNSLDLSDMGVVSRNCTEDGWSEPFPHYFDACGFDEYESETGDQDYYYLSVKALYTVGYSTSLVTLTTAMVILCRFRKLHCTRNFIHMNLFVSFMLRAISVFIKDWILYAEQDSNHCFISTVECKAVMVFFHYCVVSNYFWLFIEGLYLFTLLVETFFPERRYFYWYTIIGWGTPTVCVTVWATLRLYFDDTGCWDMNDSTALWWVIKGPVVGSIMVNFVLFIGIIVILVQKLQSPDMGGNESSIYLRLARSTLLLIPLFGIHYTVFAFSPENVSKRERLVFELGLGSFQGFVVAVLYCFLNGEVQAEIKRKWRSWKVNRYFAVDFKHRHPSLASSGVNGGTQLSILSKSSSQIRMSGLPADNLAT
Procedure, shortened: as §1

human VPAC2 [3] = molecular target: T1, human VPAC2; test: Alpha screen cAMP in vitro potency, human VPAC2 receptor; format: cell-based; settings: cAMP generation; single result from two analyses performed in a single run; read-out: Human VPAC2 Receptor: Alpha Screen EC50
Procedure, shortened: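 Stimulated cAMP accumulation is read by AlphaScreen after 60 min exposure of 50,000 non-enzymatically harvested cells to compound, followed by lysis with donor beads.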

Molecule | IC50 (human VPAC2 [1]) | Rat Serum Stability (estimated purity in % after 18 hours) [2] | IC50 (human VPAC1) | IC50 (human PAC1) | EC50 (human VPAC2 [3]) | Rat Serum Stability (Estimated purity in % after 72 hours) [2]
Hexanoyl-HSDAVFTDNYTRL[Aib]KQVAALKYLQSIKNKRYGGPSSGAPPPS [Agonist P259] | 13.2 nM | 17.65% | 3460 nM | > 3000 nM | – | –
Hexanoyl-HSDAVFTDNYTRLRKQVAAKKYVQSIKNKRYGGPSSGAPPPS [Agonist P234] | 0.33 nM | 0.69% | 641 nM | 248 nM | 0.16 nM | –
Hexanoyl-HSDAVFTDNYTRLRKQVAAIKYLQSIKNKRYGGPSSGAPPPS [Agonist P149] | 0.61 nM | 0.29% | 212 nM | 773 nM | 0.41 nM | –
Hexanoyl-HSDAVFTDNYTRL[Aib]KQVAAQKYLQSIKNKRYGGPSSGAPPPS [Agonist P243] | 5.51 nM | 12.12% | > 3000 nM | > 25000 nM | 0.28 nM | –
Hexanoyl-HSDAVFTDNYTRLRKQVAAKKYIQSIKNKRYGGPSSGAPPPS [Agonist P233] | 0.31 nM | 1.27% | 323 nM | 320 nM | 0.11 nM | –
Hexanoyl-HSDAVFTDNYTRLRKQVAAYKYLQSIKNKRYGGPSSGAPPPS [Agonist P147] | 0.24 nM | 0.07% | 107 nM | 464 nM | 0.13 nM | –
Hexanoyl-HSDAVFTDNYTRLRKQVAAKKYLQSFKNKRYGGPSSGAPPPS [Agonist P106] | 0.22 nM | 0.11% | 118 nM | 1820 nM | 0.16 nM | –
CCCCCC(=O)N[C@@H](Cc1c[nH]cn1)C(=O)N[C@@H](CO)C(=O)N[C@@H](CC(=O)O)C(=O)N[C@@H](C)C(=O)N[C@H](C(=O)N[C@@H](Cc1ccccc1)C(=O)N[C@H](C(=O)N[C@@H](CC(=O)O)C(=O)N[C@@H](CC(N)=O)C(=O)N[C@@H](Cc1ccc(O)cc1)C(=O)N[C@H](C(=O)N[C@@H](CCCNC(=N)N)C(=O)N[C@@H](CC(C)C)C(=O)NC(C)(C)C(=O)N[C@@H](CCCCN)C(=O)N[C@@H](CCC(N)=O)C(=O)N[C@H](C(=O)N[C@@H](C)C(=O)N[C@@H](C)C(=O)NC(C)(C)C(=O)N[C@@H](CCCCN)C(=O)N[C@@H](Cc1ccc(O)cc1)C(=O)N[C@@H](CC(C)C)C(=O)N[C@@H](CCC(N)=O)C(=O)N[C@@H](CO)C(=O)N[C@H](C(=O)N[C@@H](CCCCN)C(=O)N[C@@H](CCC(N)=O)C(=O)NCC(=O)NCC(=O)N1CCC[C@H]1C(=O)N[C@@H](CO)C(=O)N[C@@H](CO)C(=O)NCC(=O)N[C@@H](C)C(=O)N1CCC[C@H]1C(=O)N1CCC[C@H]1C(=O)N1CCC[C@H]1C(=O)N[C@@H](CO)C(=O)O)[C@@H](C)CC)C(C)C)[C@@H](C)O)[C@@H](C)O)C(C)C [Agonist P296] (Hexanoyl-HSDAVFTDNYTRL[Aib]KQVAA[Aib]KYLQSIKQGGPSSGAPPPS-OH; C-terminus assumed) | > 100 nM | 42.26% | > 3000 nM | > 25000 nM | – | –
Hexanoyl-HSDAVFTDNYTRLRKQVAAKKYLQSIKNKRYGGPSSGAPPPC [Agonist P120] | 0.44 nM | 5% | – | 577 nM | 0.06 nM | –
Hexanoyl-HSDAVFTDNYTRLRKQVAAKKILQSIKNKRYGGPSSGAPPPS [Agonist P133] | 5.3 nM | <2.00% | 470 nM | 1940 nM | – | –
Hexanoyl-HSDAVFTDNYTRLRFQVAAKKYLQSIKNKRYGGPSSGAPPPS [Agonist P180] | 5.63 nM | 1.14% | > 3000 nM | 589 nM | – | –
Hexanoyl-HSDAVFTDNYTRL[Aib]KQLAAK[Aib]YLQSIKNKRYGGPSSGAPPPS [Agonist P241] | 18.1 nM | 62.55% | > 3000 nM | > 25000 nM | – | –
Hexanoyl-HSDAVFTDNYTRLA[Aib]QVAA[Aib]KYLQSIKNKRYGGPSSGAPPPS [Agonist P301] | 7.27 nM | 6.86% | > 3000 nM | > 25000 nM | – | –
Hexanoyl-HSDAVFTDNYTRL[Aib]KQVAAVKYLQSIKNKRYGGPSSGAPPPS [Agonist P269] | 10.1 nM | 23.85% | > 3000 nM | > 25000 nM | – | –
Hexanoyl-HSDAVFTDNYTRL[Aib]KQVAA[Aib]KYLQSIKNKRYGGPSSGAPPPS [Agonist P242] | 6.78 nM | 40.28% | > 3000 nM | > 25000 nM | – | 3.8%
CCCCCC(=O)N[C@@H](Cc1c[nH]cn1)C(=O)N[C@@H](CO)C(=O)N[C@@H](CC(=O)O)C(=O)N[C@@H](C)C(=O)N[C@H](C(=O)N[C@@H](Cc1ccccc1)C(=O)N[C@H](C(=O)N[C@@H](CC(=O)O)C(=O)N[C@@H](CC(N)=O)C(=O)N[C@@H](Cc1ccc(O)cc1)C(=O)N[C@H](C(=O)N[C@@H](CCCNC(=N)N)C(=O)N[C@@H](CC(C)C)C(=O)NC(C)(C)C(=O)N[C@@H](CCCCN)C(=O)N[C@@H](CCC(N)=O)C(=O)N[C@H](C(=O)N[C@@H](C)C(=O)N[C@@H](C)C(=O)NC(C)(C)C(=O)N[C@@H](CCCCN)C(=O)N[C@@H](Cc1ccc(O)cc1)C(=O)N[C@@H](CC(C)C)C(=O)N[C@@H](CCC(N)=O)C(=O)N[C@@H](CO)C(=O)N[C@H](C(=O)N[C@@H](CCCCN)C(=O)N[C@@H](CCC(N)=O)C(=O)N[C@@H](CCCCN)C(=O)NCC(=O)NCC(=O)N1CCC[C@H]1C(=O)N[C@@H](CO)C(=O)N[C@@H](CO)C(=O)NCC(=O)N[C@@H](C)C(=O)N1CCC[C@H]1C(=O)N1CCC[C@H]1C(=O)N1CCC[C@H]1C(=O)N[C@@H](CO)C(=O)O)[C@@H](C)CC)C(C)C)[C@@H](C)O)[C@@H](C)O)C(C)C [Agonist P293] (Hexanoyl-HSDAVFTDNYTRL[Aib]KQVAA[Aib]KYLQSIKQKGGPSSGAPPPS-OH; C-terminus assumed) | 16.7 nM | 32.70% | > 3000 nM | > 25000 nM | – | –
Hexanoyl-HSDAVFTDNYTRLR[Aib]QAAA[Aib]KYLQSIKNKRYGGPSSGAPPPS [Agonist P324] | 0.43 nM | 13.64% | > 3000 nM | – | 0.23 nM | –
Hexanoyl-HSDAVFTDNYTRL[Aib]KQVAAAKYLQSIKNKRYGGPSSGAPPPS [Agonist P260] | 4.79 nM | 28.57% | 3320 nM | > 3000 nM | – | –
Hexanoyl-HSDAVFTDNYTRLRLQVAAKKYLQSIKNKRYGGPSSGAPPPS [Agonist P179] | 0.42 nM | 1.66% | 390 nM | – | 0.24 nM | –
Hexanoyl-HSDAVFTYNYTRLRKQVAAKKYLQSIKNKRYGGPSSGAPPPS [Agonist P163] | 2 nM | <1.25% | 35.7 nM | 238 nM | – | –
Hexanoyl-HSDAVFTDNYTRL[Cit][Aib]QVAA[Aib]KYLQSIKNKRYGGPSSGAPPPS [Agonist P320] | 1.2 nM | 28.59% | > 3000 nM | – | 0.49 nM | –
